Results reported in patent US6894038B2, “Use of biogenic estriol diester prodrugs for the treatment of autoimmune diseases” (Schering Aktiengesellschaft, priority 2002, dated 2005).

Tests used:
Lewis rat EAE model = assay: Lewis rat acute EAE model, clinical score; assay type: in vivo; conditions: female Lewis rats, 1000 ug/rat s.c. on day 1 and day 15; chronic stage of disease; ANOVA vs vehicle p≦0.028; FIG. 1
[1] = system: CD4+ lymphocytes of MS patients; conditions: concentrations at a similar level as in pregnancy; Correale et al. 1998; cited from earlier work
[2] = administered orally; cited from earlier work
[3] = oral, 12 mg/day; Lindsay et al. 1979; cited from earlier work
[4] = Heithecker et al., 1991; cited from earlier work
[5] = system: experimental autoimmune encephalomyelitis (EAE); conditions: levels equal to those found in pregnancy; Kim et al. 1999, Jansson et al. 1994; cited from earlier work

Structure (SMILES): CCCCCC(=O)Oc1ccc2c(c1)CC[C@@H]1[C@@H]2CC[C@@]2(C)[C@H]1C[C@@H](O)[C@@H]2OC(=O)CCCCC [3,17β-di-n-hexanoyloxy-1,3,5(10)-estratriene-16α-ol]
- clinical score (EAE) (Lewis rat EAE model): efficacious in lowering the clinical score

Structure (SMILES): C[C@]12CC[C@@H]3c4ccc(O)cc4CC[C@H]3[C@@H]1C[C@@H](O)[C@@H]2O [estriol]
- secretion of anti-inflammatory cytokine IL-10 [1]: stimulated
- bioavailability [2]: low
- osteoprotective effects [3]: not able to show the osteoprotective effects
- half-life [4]: 1.5 to 5.3 h
- amelioration of disease (EAE) [5]: capable of ameliorating disease
